Source: BindingDB's records for doi:10.1021/jm070133w (Nci-Fcrdc, 2007)

Molecular target: T1, Glutamate carboxypeptidase 2 [44-750] (Homo sapiens, UniProt Q04609)
T1 construct: 44-750
Assay: Determination of Inhibition Concentration Values (IC50)
Conditions: pH 7.4; 37 °C
Description: The inhibition concentration values of GCPII were determined using the radioenzymatic assay with [3H] NAAG (radiolabeled on the terminal glutamate). The enzyme was preincubated in the presence of increasing concentrations of inhibitors in reaction buffer. The reaction was initiated by adding the substrate to the reaction mixtures. After 20 min, the reaction was terminated, and the glutamate was separated from the reaction mixture by ion-exchange chromatography and quantified by liquid scintillation. Duplicate reactions were carried out for each experimental point. The IC50 values were calculated from plots of Vi/V0 (ratio of individual reaction rates to the rate of an uninhibited reaction) versus inhibitor concentration using the GraFit program (version 5.0.4, Erithacus Software Limited).

T1 sequence (Q04609 44-750): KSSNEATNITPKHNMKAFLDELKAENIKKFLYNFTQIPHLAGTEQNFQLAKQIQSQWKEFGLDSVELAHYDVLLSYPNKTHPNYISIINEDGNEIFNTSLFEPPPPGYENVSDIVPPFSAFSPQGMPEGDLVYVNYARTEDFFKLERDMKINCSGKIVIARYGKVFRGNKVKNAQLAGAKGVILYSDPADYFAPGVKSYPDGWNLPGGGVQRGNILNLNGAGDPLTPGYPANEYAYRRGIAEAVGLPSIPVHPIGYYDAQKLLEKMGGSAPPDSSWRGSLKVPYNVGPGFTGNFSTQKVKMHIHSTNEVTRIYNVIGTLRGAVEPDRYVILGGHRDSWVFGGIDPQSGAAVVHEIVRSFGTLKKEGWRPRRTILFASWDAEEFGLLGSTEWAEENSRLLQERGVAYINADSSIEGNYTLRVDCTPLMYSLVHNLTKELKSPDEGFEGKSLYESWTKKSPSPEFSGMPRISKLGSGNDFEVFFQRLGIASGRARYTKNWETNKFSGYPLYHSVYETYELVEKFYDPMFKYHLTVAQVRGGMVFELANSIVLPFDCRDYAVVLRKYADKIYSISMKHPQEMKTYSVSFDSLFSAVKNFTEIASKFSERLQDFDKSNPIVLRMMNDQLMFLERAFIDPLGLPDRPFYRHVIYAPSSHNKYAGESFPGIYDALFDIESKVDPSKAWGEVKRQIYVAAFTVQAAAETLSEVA

Cc1onc(O)c1C[C@H](N)C(=O)O
IC50: > 10 mM
